From patent US8324265B2, “Heterocyclic compounds having type I 11β hydroxysteroid dehydrogenase inhibitory activity” (Shionogi & Co., Ltd., priority 2005, dated 2012) come the findings set out here.

The target of series [1] is recombinant human 11β-HSD1 (Homo sapiens, UniProt P28845). The series is described as follows: Enzyme activity assay on human 11β-HSD1 (HTRF). The format is biochemical. The note with it: recombinant human 11β-HSD1, 5μM cortisone as substrate, 2 hours at 37° C.; read-out: humanIC50. On the procedure: Evaluation of 11β-HSD1 Inhibitors (Enzyme Activity Assay on Human 11β-HSD1)
Sequence of recombinant human 11β-HSD1 (P28845 whole entry): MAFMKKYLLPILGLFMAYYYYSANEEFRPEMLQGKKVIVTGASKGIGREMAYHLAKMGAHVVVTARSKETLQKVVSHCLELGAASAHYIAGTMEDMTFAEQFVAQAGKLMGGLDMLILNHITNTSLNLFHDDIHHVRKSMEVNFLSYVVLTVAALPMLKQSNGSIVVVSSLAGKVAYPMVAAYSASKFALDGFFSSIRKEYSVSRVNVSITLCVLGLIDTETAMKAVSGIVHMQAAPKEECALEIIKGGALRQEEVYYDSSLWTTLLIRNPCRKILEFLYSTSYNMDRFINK
Enzymatic activity for human 11β-HSD1 was determined in a 10 μl final volume of assay mixture containing 50 mM sodium phosphate buffer (pH 7.6), 1 mg/ml bovine serum albumin, 0.42 mg/ml NADPH, 1.26 mg/ml glucose-6-phosphate, glucose-6-phosphate dehydrogenase, test compound, recombinant human 11β-HSD1, and 5μM cortisone as substrate. The reaction was started with the addition of cortisone. After incubation for 2 hours at 37° C., 5μl of europium cryptate-labelled anti-cortisol antibody and 5μl of XL665-labeled cortisol were added. After further incubation for 2 hours at room temperature, the homogeneous time-resolved fluorescence (HTRF) signal was measured. The cortisol production was quantitated by a standard curve generated with several known concentrations of cortisol in each assay.
The amount of cortisol production without compounds was served as control, and the percent inhibition by test compound at each concentration was calculated. The IC50 value of the compound for 11β-HSD1 was obtained using the inhibition curve generated by plotting the percent inhibition versus the concentration of test compound.
On the technique in general: TR-FRET usually uses a lanthanide donor and a delayed reading to cut background.

Series [2] deals with recombinant mouse 11β-HSD1 (Mus musculus, UniProt P50172). As to the kind of experiment: Enzyme activity assay on mouse 11β-HSD1 (HTRF). The note with it: recombinant mouse 11β-HSD1, 2μM 11-dehydrocorticosterone as substrate, 2 hours at 37° C.; read-out: mouseIC50. The format is biochemical. On the procedure:
Evaluation of 11β-HSD1 Inhibitors (Enzyme Activity Assay on Mouse 11β-HSD1)
Enzymatic activity for mouse 11β-HSD1 activity was determined in a 10μl final volume of assay mixture containing 50 mM sodium phosphate buffer (pH 7.6), 1 mg/ml bovine serum albumin, 0.42 mg/ml NADPH, 1.26 mg/ml glucose-6-phosphate, glucose-6-phosphate dehydrogenase, test compound, recombinant mouse 11β-HSD1, and 2μM 11-dehydrocorticosterone as substrate. The reaction was started with the addition of 11-dehydrocorticosterone. After incubation for 2 hours at 37° C., 5μl of europium cryptate-labelled anti-cortisol antibody and 5μl of XL665-labeled cortisol were added. After further incubation for 2 hours at room temperature, the HTRF signal was measured. The corticosterone production was quantitated by a standard curve generated with several known concentrations of corticosterone in each assay.
The amount of corticosterone production without compounds was served as control, and the percent inhibition by compound at each concentration was calculated. The IC50 value of the compound for 11β-HSD1 was obtained using the inhibition curve generated by plotting the percent inhibition versus the concentration of test compound.

Sequence of recombinant mouse 11β-HSD1 (P50172 whole entry): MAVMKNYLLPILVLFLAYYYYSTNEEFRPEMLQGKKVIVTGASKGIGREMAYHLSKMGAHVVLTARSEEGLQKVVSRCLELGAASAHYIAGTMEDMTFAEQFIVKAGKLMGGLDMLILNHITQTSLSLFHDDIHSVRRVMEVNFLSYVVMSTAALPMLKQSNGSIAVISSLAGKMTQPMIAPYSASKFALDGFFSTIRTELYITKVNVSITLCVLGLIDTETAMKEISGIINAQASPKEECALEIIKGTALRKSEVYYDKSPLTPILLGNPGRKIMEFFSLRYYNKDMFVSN

Turning to `Cn1ncc(C(=O)NC23CC4CC(CC(C4)C2)C3)c1OCc1ccccc1` [Compound A-1], the IC50 in series [1] came to 190 nM; in series [2] it was 5900 nM.

As for `Cn1ncc(C(=O)NC23CC4CC(CC(C4)C2)C3)c1Sc1ccccc1` [Compound A-2], the IC50 in series [1] amounted to 270 nM; in series [2], 11000 nM.

Turning to `Cn1ncc(C(=O)NC23CC4CC(CC(C4)C2)C3)c1Oc1ccccc1` [Compound A-3], the IC50 in series [1] came out at 300 nM; in series [2] it was 24100 nM.

As to `Cn1ncc(C(=O)NC2C3CC4CC(C3)CC2C4)c1OCc1ccccc1` (centres unmarked) [Compound A-4], the IC50 in series [1] worked out at 37 nM; in series [2], 1600 nM.

With `Cn1cc(C(=O)NC2C3CC4CC(C3)CC2C4)c(OCc2ccccc2)n1` (centres unmarked) [Compound A-5], the IC50 in series [1] was 710 nM; in series [2] it was more than 30000 nM.

For the compound `Cn1ncc(C(=O)NC2C3CC4CC(C3)CC2C4)c1OC1CCCCC1` (centres unmarked) [Compound A-6], the IC50 in series [1] amounted to 8.3 nM; in series [2], 940 nM.

As to `Cn1ncc(C(=O)NC2C3CC4CC(C3)CC2C4)c1OCCc1ccccc1` (centres unmarked) [Compound A-7], the IC50 was found to be 18 nM in series [1] and 710 nM in series [2].

As to `Cn1ncc(C(=O)NC2C3CC4CC(C3)CC2C4)c1OCC1CCC1` (centres unmarked) [Compound A-63], the melting point (commonly the temperature of the solid-liquid transition) is 84 to 85 °C.

`Cn1ncc(C(=O)NC2C3CC4CC(C3)CC2C4)c1OCCc1ccsc1` (centres unmarked) [Compound A-64] showed a melting point of 68 to 69 °C.

As to `CCC(CC)COc1c(C(=O)NC2C3CC4CC(C3)CC2C4)cnn1C` (centres unmarked) [Compound A-65], the melting point fell in the range of 89 to 90 °C.
